Converted amounts (≈) assume the structure as drawn. “And” between values parts separate entries of the source, which are not always exact repeats. Equal entries are not always repeated. Where two headings read alike, the source gives them in different places.
Tests used:
[1] = system: clinical strains of Staphylococcus aureus; assay: MIC of cloxacillin by growth (absorbance) in 96-well microplates, Mueller-Hinton medium; format: cell-based; details: for MIC: Staphylococcus aureus, read-out: MH MIC
Procedure: (§1) The determination of each minimum inhibitory concentration (MIC) of cloxacillin was measured conventionally by measuring the growth of each strain in 96-well microplates in the presence of concentrations of antibiotic by absorbance.
The MIC was measured in Mueller-Hinton medium (MH; reference medium for antibiotic susceptibility testing) and brain heart infusion (BHI) medium.

[2] = system: clinical strains of Staphylococcus aureus; assay: Antibiofilmogram / BioFilm Ring Test: biofilm minimum inhibitory concentration (MICb); format: cell-based; details: for MIC: Staphylococcus aureus; for MIC / MIC b: 4 h, BHI medium
Procedure: To determine and measure the effect of cloxacillin on biofilm formation, specifically bacterial adhesion, the first step in biofilm formation, Staphylococcus aureus strains S14 and S39 were incubated in the wells of a 96-well microplate in the presence of varying concentrations of cloxacillin. The concentrations tested ranged from 0.25 μg/mL to 32 μg/mL cloxacillin. This test is called, by BioFilm Control, an Antibiofilmogram®. The inoculum of bacteria was 4·10^6 bacteria/mL, in 200 μL brain heart infusion (BHI) medium, in the presence of magnetic microbeads (Toner 4, product code TON004) at a concentration of 2 μL per 200 μL, i.e. 10 μL/mL).
The microplate was incubated for 4 hat 37° C., then covered with 120 μL of contrast liquid (Contrast liquid; product code LIC001) and placed for 1 minute on a magnet block (product code BKTMB) designed so that each mini-magnet is centered with respect to the 96 wells. The microplate was then placed on a scanner and the image was acquired and analyzed by the BFCE3 software which quantifies the aggregation of the magnetic microbeads in the center of the wells and provides a biofilm formation index (BFI) value. A BFI value of 20, or close to 20 corresponds to maximum aggregation, therefore no biofilm formation, and therefore cloxacillin anti-adhesion efficacy. […] All intermediate values, allowing a quantitative measurement of the efficacy of cloxacillin are possible.
The experimental procedure and protocol were as described above.
The measurement of the MICb (determination of the biofilm minimum inhibitory concentration), using the BioFilm Ring ^Test® was performed in BHI medium. The conversion in mg/kg. The results are summarized in Table 1 according to the strains tested.

[3] = system: Staphylococcus aureus strains S14 and S39; assay: Implanted subcutaneous catheter infection model in mice; format: in vivo; details: 12 h, 24 h and 30 h
[4] = system: Staphylococcus aureus strains S14 and S39; assay: MIC of cloxacillin (medium not stated); format: cell-based; details: for MIC: Staphylococcus aureus
Procedure: as §1

Which results are given for `Cc1onc(-c2ccccc2Cl)c1C(=O)N[C@@H]1C(=O)N2[C@@H]1SC(C)(C)[C@@H]2C(=O)O` [cloxacillin]?
MIC ([1]; strain S02): 0.125 µg/mL; MIC ([1]; strain S04): 0.25 µg/mL; MIC ([1]; strain S08): 0.25 µg/mL; MIC ([1]; strain S11): 0.5 µg/mL; MIC ([1]; strain S14): 0.25 µg/mL; MIC ([1]; strain S16): 0.25 µg/mL; MIC ([1]; strain S19): 0.5 µg/mL; MIC ([1]; strain S21): 0.25 µg/mL; MIC ([1]; strain S22): 0.5 µg/mL; MIC ([1]; strain S26): 0.25 µg/mL; MIC ([1]; strain S27): 0.25 µg/mL; MIC ([1]; strain S31): 0.25 µg/mL; MIC ([1]; strain S34): 0.5 µg/mL; MIC ([1]; strain S38): 0.5 µg/mL; MIC ([1]; strain S39): 0.5 µg/mL; MIC ([1]; strain S40): 0.5 µg/mL; MIC ([1]; strain S43): 0.25 µg/mL; MIC ([1]; strain S44): 0.25 µg/mL; MIC ([1]; strain S46): 0.25 µg/mL; MIC ([1]; strain S47): 0.25 µg/mL; MIC ([1]; strain S51): 0.25 µg/mL; MIC ([1]; strain S58): 0.25 µg/mL; MIC ([1]; strain S62): 0.25 µg/mL; MIC ([1]; strain S63): 0.25 µg/mL; MIC ([1]; strain S74): 0.25 µg/mL; MIC ([1]; strain S83): 0.125 µg/mL; MH MIC ([1]; strain S02): 0.125 µg/mL; MH MIC ([1]; strain S38): 0.5 µg/mL; MH MIC ([1]; strain S58): 0.25 µg/mL; MH MIC ([1]; strain S83): 0.125 µg/mL; MIC ([2]; strain S02): 2 µg/mL (≈ 4.59 µM); MIC ([2]; strain S04): 4 µg/mL (≈ 9.18 µM); MIC ([2]; strain S08): 2 µg/mL (≈ 4.59 µM); MIC ([2]; strain S11): 4 µg/mL (≈ 9.18 µM); MIC ([2]; strain S14): 2 µg/mL (≈ 4.59 µM); MIC ([2]; strain S16): 4 µg/mL (≈ 9.18 µM); MIC ([2]; strain S19): 2 µg/mL (≈ 4.59 µM); MIC ([2]; strain S21): 4 µg/mL (≈ 9.18 µM); MIC ([2]; strain S22): 4 µg/mL (≈ 9.18 µM); MIC ([2]; strain S26): 4 µg/mL (≈ 9.18 µM); MIC ([2]; strain S27): 4 µg/mL (≈ 9.18 µM); MIC ([2]; strain S31): 4 µg/mL (≈ 9.18 µM); MIC ([2]; strain S34): 8 µg/mL (≈ 18.4 µM); MIC ([2]; strain S38): 16 µg/mL (≈ 36.7 µM); MIC ([2]; strain S39): 8 µg/mL (≈ 18.4 µM); MIC ([2]; strain S40): 4 µg/mL (≈ 9.18 µM); MIC ([2]; strain S43): 4 µg/mL (≈ 9.18 µM); MIC ([2]; strain S44): 4 µg/mL (≈ 9.18 µM); MIC ([2]; strain S46): 2 µg/mL (≈ 4.59 µM); MIC ([2]; strain S47): 2 µg/mL (≈ 4.59 µM); MIC ([2]; strain S51): 4 µg/mL (≈ 9.18 µM); MIC ([2]; strain S58): 16 µg/mL (≈ 36.7 µM); MIC ([2]; strain S62): 8 µg/mL (≈ 18.4 µM); MIC ([2]; strain S63): 8 µg/mL (≈ 18.4 µM); MIC ([2]; strain S74): 4 µg/mL (≈ 9.18 µM); MIC ([2]; strain S83): 16 µg/mL (≈ 36.7 µM); mean MICb ([2]; panel of 26 strains, standard deviation 4.2 μg/mL): 5.5 µg/mL; MIC b ([2]; strain S02): 2 µg/mL (≈ 4.59 µM); MIC b ([2]; strain S14): 2 µg/mL (≈ 4.59 µM); MIC b ([2]; strain S38): 16 µg/mL (≈ 36.7 µM); MIC b ([2]; strain S39): 6 µg/mL and 4 to 6 µg/mL and 4 µg/mL; MIC b ([2]; strain S58): 16 µg/mL (≈ 36.7 µM); MIC b ([2]; strain S83): 16 µg/mL (≈ 36.7 µM); bacteria attached to the implanted catheter (log CFU/g catheter) vs control ([3]; strain S14, MIC dose (5 mg/kg pre-infection, then 3 mg/kg every 2 h for 10 h, intraperitoneal)): ineffectiveness; bacteria attached to the implanted catheter (log CFU/g catheter) vs control ([3]; strain S14, MICb dose (30 mg/kg pre-infection, then 15 mg/kg every 2 h for 10 h, intraperitoneal)): statistically significant difference from control (***); bacteria attached to the implanted catheter (log CFU/g catheter) vs control ([3]; strain S39, MIC dose (7 mg/kg pre-infection, then 4 mg/kg every 2 h for 10 h, intraperitoneal)): ineffectiveness; bacteria attached to the implanted catheter (log CFU/g catheter) vs control ([3]; strain S39, MICb dose (45 mg/kg pre-infection, then 25 mg/kg every 2 h for 10 h, intraperitoneal)): statistically significant difference from control (***); MIC ([4]; strain S14, read-out: minimum inhibitory concentration (MIC)): 0.25 µg/mL; MIC ([4]; strain S39, read-out: minimum inhibitory concentration (MIC)): 0.125 µg/mL; minimum inhibitory concentration (MIC) ([4]; strain S14): 0.125 µg/mL; minimum inhibitory concentration (MIC) ([4]; strain S39): 0.25 µg/mL
